Test results reported in US20190350898A1, “METHODS AND COMPOSITIONS FOR TREATMENT OF ALZHEIMER'S DISEASE” (Neurotrope Bioscience, Inc., priority 2018, published 2019).
Entries after “also recorded” stand apart in the source; their conditions may differ.

How the values were obtained:
[1] = test system: patients with advanced Alzheimer's disease; experiment: Safety and tolerability, treatment emergent adverse events (TEAEs), same trial; assay type: in vivo, human; details: 40 μg group
Procedure: In a double-blind, randomized, placebo-controlled trial, bryostatin was administered by intravenous infusion (˜45 minutes) to patients with advanced Alzheimer's disease for 12 weeks at doses of 20 or 40 μg. Randomization was stratified at baseline by severe (MMSE-2, 4-9) and moderate (MMSE-2, 10-15) dementia, wherein MMSE-2 refers to Mini-Mental State Examination, version 2. The MMSE or Folstein test is a 30-point questionnaire that is used extensively in clinical and research settings to measure cognitive impairment. Low scores indicate greater impairment. […]
Adults aged 55-85 with cognitive deficits present for at least 2 years, MMSE-2 of 4-15, inclusive, and a diagnosis of Alzheimer's dementia were randomly assigned to receive blinded intravenous infusions of bryostatin 24 μg or matching placebo at weeks 0 and 1. […] In one arm, the two 24 μg doses were followed by 20 μg doses at weeks 5, 7, 9 and 11 with the Severe Impairment Battery (SIB) measured at baseline and weeks 5, 9, 13, and 15. In a second arm, the two 48 μg doses at weeks 0 and 1 were followed by 40 μg doses at weeks 5, 7, 9, and 11 with the SIB measured at baseline and weeks 5, 9, 13, and 15. […] The first primary endpoint was safety and tolerability, assessed by treatment emergent adverse events (TEAEs) with a sample size of 150 subjects randomized 1:1:1. […]

[2] = test system: patients with advanced Alzheimer's disease; experiment: Severe Impairment Battery (SIB) change from baseline, double-blind randomized placebo-controlled trial; assay type: in vivo, human; details: for Mean slope of SIB over time, Unweight Slope / Mean slope of SIB over time, Weighted Slope: 20 μg Bryostatin; for Mean slope of SIB over time, Unweight Slope: baseline to week 15; for Mean slope of SIB over time, Weighted Slope: weighted by number of non-zero SIB scores; for SIB Total change from baseline, LS Mean (SE) / SIB Total, Difference vs. Placebo / SIB Total change from baseline, LS Mean: Bryostatin 20 μg
Procedure: In a double-blind, randomized, placebo-controlled trial, bryostatin was administered by intravenous infusion (˜45 minutes) to patients with advanced Alzheimer's disease for 12 weeks at doses of 20 or 40 μg. Randomization was stratified at baseline by severe (MMSE-2, 4-9) and moderate (MMSE-2, 10-15) dementia, wherein MMSE-2 refers to Mini-Mental State Examination, version 2. The MMSE or Folstein test is a 30-point questionnaire that is used extensively in clinical and research settings to measure cognitive impairment. Low scores indicate greater impairment. Version 2 of the MMSE was published in 2010, expanding the original questionnaire's usefulness in populations with milder forms of cognitive impairment. […] Importantly, this cognitive improvement persisted and increased 30 days after all bryostatin dosing had been completed.
Adults aged 55-85 with cognitive deficits present for at least 2 years, MMSE-2 of 4-15, inclusive, and a diagnosis of Alzheimer's dementia were randomly assigned to receive blinded intravenous infusions of bryostatin 24 μg or matching placebo at weeks 0 and 1. The 24 μg and 48 μg doses during the first two weeks of the 20 and 40 μg protocols respectively were considered to be “loading” doses thought to be beneficial from prior experience with Compassionate Use trial patients. Nelson et al., Alzheimers Dis. 2017 58: 521-535. In one arm, the two 24 μg doses were followed by 20 μg doses at weeks 5, 7, 9 and 11 with the Severe Impairment Battery (SIB) measured at baseline and weeks 5, 9, 13, and 15. In a second arm, the two 48 μg doses at weeks 0 and 1 were followed by 40 μg doses at weeks 5, 7, 9, and 11 with the SIB measured at baseline and weeks 5, 9, 13, and 15. The subjects were stratified by MMSE-2 in two strata: Stratum 1 (4-9) and Stratum 2 (10-15). The first primary endpoint was safety and tolerability, assessed by treatment emergent adverse events (TEAEs) with a sample size of 150 subjects randomized 1:1:1. Although efficacy was the secondary measure, the primary efficacy endpoint was SIB improvement at week 13 evaluated using a mixed model for repeated measures. A secondary efficacy endpoint was ADCS-ADL Sev. The primary safety population included all subjects who received at least 1 dose of study drug, and efficacy was evaluated in a modified intent to treat (mITT) population that received at least 1 dose of study drug and had at least one treatment evaluation. Efficacy was evaluated both as a primary end-point in the modified intent-to-treat (mITT) population and also as a primary end point in a Completers population that included all patients that completed the entire protocols as described above.
The SIB efficacy measurement at 30 days (week 15) post dosing—after all dosing had been completed (last dose administered at week 11)—was a pre-specified exploratory endpoint. Week 15 results were only included for subjects who were not re-randomized. The mixed model assumes missing at random, but order of enrollment in the trial was not random. Since order of enrollment was not random, the assumption of missing at random is not met. For this reason, only including week 15 for those who were not re-randomized is an appropriate way to estimate week 15 results, but not an appropriate way to estimate results at the earlier visits. For this reason, estimates up through week 13 are from a mixed model that only included data through week 13 and the week 15 estimates are from a separate model. Results were generated using a mixed model with repeated measures predicting change from baseline in SIB Total Score as the response variable and using baseline score, baseline MMSE strata, treatment, visit (categorical), and visit (treatment) as predictors. […]

[3] = Week 5, Completer, With Memantine
[4] = Week 5, Completer, Without Memantine
[5] = Week 9, Completer, With Memantine
[6] = Week 9, Completer, Without Memantine
[7] = Week 13, Completer, With Memantine
[8] = Week 13, Completer, Without Memantine
[9] = Week 13, FAS (mITT), With Memantine

CCC/C=C/C=C/C(=O)O[C@H]1/C(=C/C(=O)OC)C[C@H]2C[C@H]([C@@H](C)O)OC(=O)C[C@H](O)C[C@@H]3C[C@H](OC(C)=O)C(C)(C)[C@](O)(C[C@@H]4C/C(=C/C(=O)OC)C[C@H](/C=C/C(C)(C)[C@]1(O)O2)O4)O3 [Bryostatin, bryostatin-1] was tested, and the “Safety results (adverse events)” value [1] was “more adverse events”, the “Mean slope of SIB over time, Unweight Slope” value ([2]; first column group (strata head not given, probably memantine naïve)) was 0.382 and the “Mean slope of SIB over time, Unweight Slope” value ([2]; second column group (strata head not given, probably memantine exposed)) was −0.143. The “Mean slope of SIB over time, Weighted Slope” value ([2]; first column group (probably memantine naïve)) was 0.363, the “Mean slope of SIB over time, Weighted Slope” value ([2]; second column group (probably memantine exposed)) was −0.099 and the “SIB improvement at week 5 compared to placebo and baseline” value ([2]; 20 μg arm, week 5, after 3 doses) was “significant improvement”. For the same compound, the “SIB improvement compared to placebo” value ([2]; 20 μg dose, patients on memantine background therapy) was “no SIB improvement; also recorded: did not occur”, the “SIB improvement versus baseline and placebo” value ([2]; 20 μg dose, throughout the 13-week trial) was “sustained improvements in SIB scores; also recorded: sustained efficacy; also recorded: sustained improvement in SIB” and the “SIB improvement versus baseline and placebo” value ([2]; 40 μg dose) was “lack of efficacy; also recorded: no SIB improvement”. The “SIB Total change from baseline, LS Mean (SE)” value (from here on “SIB Total change … (SE)”) ([2]; Week 5, Completer, MMRM) was 1.67 (0.964), the “SIB Total, Difference vs. Placebo” value ([2]; Week 5, Completer, MMRM) was 4.00 and the “SIB Total change from baseline, LS Mean” value [2, 3] was 0.61. The “SIB Total, Difference vs. Placebo” value [2, 3] was 2.94, the “SIB Total change from baseline, LS Mean” value [2, 4] was 3.22 and the “SIB Total, Difference vs. Placebo” value [2, 4] was 5.38. The “SIB Total change … (SE)” value ([2]; Week 5, FAS, MMRM) was 1.18 (1.102), the “SIB Total, Difference vs. Placebo” value ([2]; Week 5, FAS, MMRM) was 2.96 and the “SIB Total change from baseline, LS Mean” value ([2]; Week 5, FAS, With Memantine) was 0.26. For the same compound, the “SIB Total, Difference vs. Placebo” value ([2]; Week 5, FAS, With Memantine) was 1.96, the “SIB Total change from baseline, LS Mean” value ([2]; Week 5, FAS, Without Memantine) was 2.74 and the “SIB Total, Difference vs. Placebo” value ([2]; Week 5, FAS, Without Memantine) was 4.48. The “SIB Total change … (SE)” value ([2]; Week 9, Completer, MMRM) was 1.28 (1.119), the “SIB Total, Difference vs. Placebo” value ([2]; Week 9, Completer, MMRM) was 1.85 and the “SIB Total change from baseline, LS Mean” value [2, 5] was −0.16. For the same compound, the “SIB Total, Difference vs. Placebo” value [2, 5] was 0.90, the “SIB Total change from baseline, LS Mean” value [2, 6] was 3.34 and the “SIB Total, Difference vs. Placebo” value [2, 6] was 2.66. The “SIB Total change … (SE)” value ([2]; Week 9, FAS, MMRM) was 0.94 (1.149), the “SIB Total, Difference vs. Placebo” value ([2]; Week 9, FAS, MMRM) was 1.03 and the “SIB Total change from baseline, LS Mean” value ([2]; Week 9, FAS, With Memantine) was −0.33. The “SIB Total, Difference vs. Placebo” value ([2]; Week 9, FAS, With Memantine) was 0.09, the “SIB Total change from baseline, LS Mean” value ([2]; Week 9, FAS, Without Memantine) was 2.95 and the “SIB Total, Difference vs. Placebo” value ([2]; Week 9, FAS, Without Memantine) was 2.08. For the same compound, the “SIB Total change … (SE)” value ([2]; Week 13, Completer, MMRM) was 1.51 (1.118), the “SIB Total, Difference vs. Placebo” value ([2]; Week 13, Completer, MMRM) was 2.63 and the “SIB Total, Difference vs. Placebo” value ([2]; Week 13, Completer, MMRM, listed as bryostatin) was 2.6. For the same compound, the “SIB Total change from baseline, LS Mean” value [2, 7] was −0.39, the “SIB Total, Difference vs. Placebo” value [2, 7] was 0.56 and the “SIB Total change from baseline, LS Mean” value [2, 8] was 4.22. The “SIB Total, Difference vs. Placebo” value [2, 8] was 5.53, the “SIB Total change from baseline, LS Mean” value [2, 9] was −0.60 and the “SIB Total, Difference vs. Placebo” value [2, 9] was −0.14.
